Active and inactive are the calls of the source. The rule behind the calls is not given here.
Legend:
[1] = system: HeLa; assay: Induction of apoptosis in human HeLa cells assessed as early apoptotic cells incubated for 24 hrs by Annexin-V-FITC/PI staining based flow cytometry analysis (reference value: 0.41 %); type: functional
[2] = system: HeLa; assay: Induction of cell cycle arrest in human HeLa cells assessed as accumulation of cell debris measured after 24 hrs by PI/Rnase staining based flow cytometry analysis (reference value: 1.33%); type: functional
[3] = system: MCF7; assay: Induction of apoptosis in human MCF7 cells assessed as necrotic cells incubated for 24 hrs by Annexin-V-FITC/PI staining based flow cytometry analysis (reference value: 1.57%); type: functional
[4] = system: MCF7; assay: Induction of cell cycle arrest in human MCF7 cells assessed as accumulation of cells at G2/M phase measured after 24 hrs by PI/Rnase staining based flow cytometry analysis (reference value: 14.86 %); type: functional
[5] = system: HepG2; assay: cells; details: Homo sapiens, HepG2, 48 h
Description: Antitumor activity against human HepG2 cells assessed as inhibition of cell viability incubated for 48 hrs by MTT assay

[6] = system: HCT-116; assay: Induction of cell cycle arrest in human HCT-116 cells assessed as accumulation of cells at G1 phase measured after 24 hrs by PI/Rnase staining based flow cytometry analysis (reference value: 47.28%); type: functional
[7] = system: MCF7; assay: Induction of apoptosis in human MCF7 cells assessed as early apoptotic cells incubated for 24 hrs by Annexin-V-FITC/PI staining based flow cytometry analysis (reference value: 0.51%); type: functional
[8] = system: HEp-2; assay: cells; details: Homo sapiens, HEp-2, 48 h
Description: Antitumor activity against human HEp-2 cells assessed as inhibition of cell viability incubated for 48 hrs by MTT assay

[9] = system: HeLa; assay: cells; details: Homo sapiens, 48 h
Description: Antitumor activity against human HeLa cells assessed as inhibition of cell viability incubated for 48 hrs by MTT assay

[10] = Cytotoxicity against human WI-38 cells incubated for 48 hrs by MTT assay; type: toxicity, cell-based
[11] = system: HeLa; assay: Induction of cell cycle arrest in human HeLa cells assessed as accumulation of cells at G2/M phase measured after 24 hrs by PI/Rnase staining based flow cytometry analysis (reference value: 16.27 %); type: functional
[12] = system: WISH; assay: Cytotoxicity against human WISH cells at up to 50 uM incubated for 48 hrs by MTT assay; type: toxicity, cell-based
[13] = system: Ehrlich; assay: Antitumor activity against mouse EAC cells xenografted in Swiss albino mouse assessed as reduction in tumor volume at 10 mg/kg, ip measured after 5 to 20 days; type: functional, organism-based; details: time 5-20 day
[14] = system: WI-38; assay: Cytotoxicity against human WI-38 cells up to 50 uM incubated for 48 hrs by MTT assay; type: toxicity, cell-based; details: wi-38, 48 h
[15] = system: Ehrlich; assay: Antitumor activity against mouse EAC cells xenografted in Swiss albino mouse assessed as tumor growth inhibition at 10 mg/kg, ip measured after 10 to 20 days; type: functional; details: read-out: TGI, time 10-20 day
[16] = system: HeLa; assay: Induction of cell cycle arrest in human HeLa cells assessed as accumulation of cells at S phase measured after 24 hrs by PI/Rnase staining based flow cytometry analysis (reference value: 31.04 %); type: functional
[17] = system: HeLa; assay: Induction of apoptosis in human HeLa cells assessed as late apoptotic cells incubated for 24 hrs by Annexin-V-FITC/PI staining based flow cytometry analysis (reference value: 0.13 %); type: functional
[18] = system: HeLa; assay: Induction of apoptosis in human HeLa cells assessed as necrotic cells incubated for 24 hrs by Annexin-V-FITC/PI staining based flow cytometry analysis (reference value: 1.12 %); type: functional
[19] = system: HCT-116; assay: Induction of cell cycle arrest in human HCT-116 cells assessed as accumulation of cells at G2/M phase measured after 24 hrs by PI/Rnase staining based flow cytometry analysis (reference value: 17.66 %); type: functional
[20] = system: MCF7; assay: Induction of cell cycle arrest in human MCF7 cells assessed as accumulation of cells at G1 phase measured after 24 hrs by PI/Rnase staining based flow cytometry analysis (reference value: 56.37%); type: functional
[21] = system: MCF7; assay: Induction of cell cycle arrest in human MCF7 cells assessed as accumulation of cells at S phase measured after 24 hrs by PI/Rnase staining based flow cytometry analysis (reference value: 28.77 %); type: functional
[22] = system: MCF7; assay: Induction of apoptosis in human MCF7 cells assessed as late apoptotic cells incubated for 24 hrs by Annexin-V-FITC/PI staining based flow cytometry analysis (reference value: 0.21%); type: functional
[23] = system: MCF7; assay: cells; details: Homo sapiens, MCF7, 48 h
Description: Antitumor activity against human MCF7 cells assessed as inhibition of cell viability incubated for 48 hrs by MTT assay

[24] = system: HCT-116; assay: Induction of apoptosis in human HCT-116 cells assessed as early apoptotic cells incubated for 24 hrs by Annexin-V-FITC/PI staining based flow cytometry analysis (reference value: 0.44%); type: functional
[25] = system: HeLa; assay: Induction of cell cycle arrest in human HeLa cells assessed as accumulation of cells at G1 phase measured after 24 hrs by PI/Rnase staining based flow cytometry analysis (reference value: 52.69 %); type: functional
[26] = system: HCT-116; assay: Induction of cell cycle arrest in human HCT-116 cells assessed as accumulation of cells at S phase measured after 24 hrs by PI/Rnase staining based flow cytometry analysis (reference value: 17.66 %); type: functional
[27] = system: HCT-116; assay: Induction of apoptosis in human HCT-116 cells assessed as necrotic cells incubated for 24 hrs by Annexin-V-FITC/PI staining based flow cytometry analysis (reference value: 1.34%); type: functional
[28] = system: HCT-116; assay: Induction of cell cycle arrest in human HCT-116 cells assessed as accumulation of cell debris measured after 24 hrs by PI/Rnase staining based flow cytometry analysis (reference value: 1.33%); type: functional
[29] = system: HCT-116; assay: cells; details: Homo sapiens, HCT-116, 48 h
Description: Antitumor activity against human HCT-116 cells assessed as inhibition of cell viability incubated for 48 hrs by MTT assay

[30] = Cytotoxicity against human WISH cells incubated for 48 hrs by MTT assay; type: toxicity, cell-based
[31] = system: HCT-116; assay: Induction of apoptosis in human HCT-116 cells assessed as late apoptotic cells incubated for 24 hrs by Annexin-V-FITC/PI staining based flow cytometry analysis (reference value: 0.16%); type: functional
[32] = system: MCF7; assay: Induction of cell cycle arrest in human MCF7 cells assessed as accumulation of cell debris measured after 24 hrs by PI/Rnase staining based flow cytometry analysis (reference value: 1.61%); type: functional

## N#Cc1sc(Nc2ccccc2)nc1NC(=O)CNNCC(=O)c1ccc(Cl)cc1
[1]
  Activity: 19.17%
[2]
  Activity: 2.17%
[3]
  Activity: 4.47%
[4]
  Activity: 12.55%
[5]
  IC50: 15.2 µM
[6]
  Activity: 51.96%
[7]
  Activity: 6.22%
[8]
  IC50: 26.9 µM
[9]
  IC50: 10.6 µM
[10]
  IC50 at 48 h: 60.8 µM
[11]
  Activity: 15.23%
[12]
  Activity: Non-toxic
[13]
  Activity: Active
[14]
  Activity: Non-toxic
[15]
  inhibition in vivo at 10 mg/kg: > 50%
[16]
  Activity: 41.19%
[17]
  Activity: 12.35%
[18]
  Activity: 2.66%
[19]
  Activity: 16.05%
[20]
  Activity: 63.61%
[21]
  Activity: 23.84%
[22]
  Activity: 19.17%
[23]
  IC50: 13.3 µM
[24]
  Activity: 21.42%
[25]
  Activity: 43.64%
[26]
  Activity: 31.99%
[27]
  Activity: 2.2%
[28]
  Activity: 2.25%
[29]
  IC50: 11.6 µM
[30]
  IC50 at 48 h: 77.2 µM
[31]
  Activity: 8.29%
[32]
  Activity: 1.58%

— ChEMBL document CHEMBL6177928, “Probing structural requirements for thiazole-based mimetics of sunitinib as potent VEGFR-2 inhibitors” (RSC Med Chem, 2025)
